The NIST ThermoML archive (doi:10.1016/j.jct.2017.11.012)

Details: for mass density: 101.33 kPa, Liquid, Buoyancy - hydrostatic balance with magnetic suspension - one sinker

CCCCCCCCCCn1cc[n+](C)c1.[Br-] [1-decyl-3-methylimidazolium bromide]
Details | mass density [kg/m3]
298.41 K | 1128.2
303.45 K | 1124.55
308.2 K | 1121.27
313.5 K | 1117.38
318.29 K | 1113.91
322.96 K | 1110.37
327.96 K | 1106.69
333.59 K | 1102.59
337.76 K | 1099.91
343.08 K | 1095.88
348.29 K | 1092.59
352.96 K | 1089.23
358.48 K | 1085.6
361.87 K | 1083.32

Details | surface tension liquid-gas [mN/m]
303.38 K, Ring tensiometer | 28.04
303.43 K, Wilhelmy Plate | 27.64
308.15 K, Ring tensiometer | 27.97
313.47 K, Ring tensiometer | 27.73
318.26 K, Ring tensiometer | 27.54
322.99 K, Ring tensiometer | 27.14
323.02 K, Wilhelmy Plate | 26.87
328.01 K, Ring tensiometer | 27.01
328.08 K, Wilhelmy Plate | 26.65
332.75 K, Ring tensiometer | 26.87
332.76 K, Wilhelmy Plate | 26.45
337.48 K, Wilhelmy Plate | 26.22
338.06 K, Ring tensiometer | 26.74
343.15 K, Ring tensiometer | 26.07
343.19 K, Wilhelmy Plate | 25.97
347.35 K, Ring tensiometer | 26.14
347.47 K, Wilhelmy Plate | 25.82
352.46 K, Ring tensiometer | 25.77
352.93 K, Wilhelmy Plate | 25.57
358.38 K, Ring tensiometer | 25.28
358.41 K, Wilhelmy Plate | 25.36
361.45 K, Ring tensiometer | 25.51
361.5 K, Wilhelmy Plate | 25.22

CCCCCCCn1cc[n+](C)c1.[Br-] [1-heptyl-3-methylimidazolium bromide]
Details | mass density [kg/m3]
288.61 K | 1204.51
293.46 K | 1200.12
298.41 K | 1196.78
303.25 K | 1193
308.21 K | 1189.59
313.68 K | 1184.48
318.07 K | 1180.84
323.13 K | 1177.36
328.04 K | 1173.42
333.16 K | 1169.7
338.28 K | 1165.8
342.93 K | 1162.61
348 K | 1159.27
353.15 K | 1155.57
358.44 K | 1151.81
361.83 K | 1149.33

surface tension liquid-gas [mN/m]
Details | Ring tensiometer | Wilhelmy Plate
313.61 K | 34.83 | 34.57
317.99 K | 34.5 | –
318.02 K | – | 34.35
323.11 K | 34.21 | –
323.13 K | – | 34.09
328.07 K | 34.3 | –
328.11 K | – | 33.89
333.19 K | 33.55 | –
333.24 K | – | 33.58
338.33 K | 33.25 | 33.3
341.81 K | 33.17 | –
341.91 K | – | 33.14
347.18 K | 33.07 | –
347.23 K | – | 32.89
353.09 K | 32.56 | –
353.14 K | – | 32.61
358.31 K | 32.41 | –
358.37 K | – | 32.4
361.72 K | 32.03 | –
361.8 K | – | 32.17

CCC[n+]1ccn(C)c1.[Br-] [1-methyl-3-propylimidazolium bromide]
surface tension liquid-gas [mN/m]
Details | Ring tensiometer | Wilhelmy Plate
328.53 K | – | 55.02
328.55 K | 55.07 | –
333.09 K | – | 54.74
333.1 K | 55.08 | –
337.75 K | 54.69 | 54.46
343.78 K | 54.17 | –
343.8 K | – | 53.93
347.98 K | 53.66 | –
348.01 K | – | 53.75
352.22 K | – | 53.51
352.34 K | 53.52 | –
358.15 K | 52.86 | –
358.17 K | – | 53.09
362.78 K | 52.94 | –
362.89 K | – | 52.72

Details | mass density [kg/m3]
333.07 K | 1332.55
337.73 K | 1329.41
343.74 K | 1325.39
347.91 K | 1322.26
352.28 K | 1318.84
358.1 K | 1314.79
362.76 K | 1310.9

CCCCn1cc[n+](C)c1.[Br-] [1-butyl-3-methylimidazolium bromide]
surface tension liquid-gas [mN/m]
Details | Ring tensiometer | Wilhelmy Plate
308.39 K | 50.28 | 49.98
313.11 K | 49.8 | 49.69
318.48 K | 49.51 | 49.33
323.54 K | – | 48.98
323.57 K | 49.22 | –
328.1 K | – | 48.67
328.14 K | 48.96 | –
333.02 K | – | 48.35
333.03 K | 48.6 | –
337.99 K | 48.27 | –
338.01 K | – | 48.07
342.75 K | 48 | 47.75
349.14 K | 47.72 | –
349.16 K | – | 47.31
353.12 K | 47.24 | –
353.41 K | – | 47.09
358.27 K | 47.27 | –
358.3 K | – | 46.78
362.9 K | 46.86 | –
362.92 K | – | 46.39

Details | mass density [kg/m3]
308.39 K | 1299.64
313.12 K | 1296.36
318.5 K | 1292.56
323.58 K | 1288.88
328.14 K | 1285.46
333.02 K | 1281.54
337.96 K | 1278.29
342.67 K | 1275.32
349.08 K | 1271.43
353.08 K | 1268.23
358.19 K | 1264.49
362.86 K | 1261.43

CCCCCCCCn1cc[n+](C)c1.[Br-] [1-methyl-3-octylimidazolium bromide]
Details | mass density [kg/m3]
293.61 K | 1173.83
298.22 K | 1170.38
303.23 K | 1166.69
307.98 K | 1163.19
313.53 K | 1159.21
318.39 K | 1155.7
323.35 K | 1151.66
328.26 K | 1147.97
332.57 K | 1145.04
338.39 K | 1140.81
342.96 K | 1137.99
347.82 K | 1135.43
353.15 K | 1131.58
358.97 K | 1127.78
360.84 K | 1126.32

surface tension liquid-gas [mN/m]
Details | Ring tensiometer | Wilhelmy Plate
303.23 K | 32.9 | 32.52
307.93 K | – | 32.34
307.95 K | 32.68 | –
313.51 K | 32.49 | 32.16
318.36 K | – | 31.99
318.37 K | 32.28 | –
323.33 K | – | 31.75
323.34 K | 32.03 | –
328.25 K | – | 31.56
328.26 K | 31.79 | –
332.59 K | 31.67 | –
332.6 K | – | 31.43
338.4 K | 31.5 | –
338.44 K | – | 31.17
343.06 K | 30.97 | –
343.07 K | – | 30.89
347.49 K | 30.57 | –
347.69 K | – | 30.73
352.5 K | – | 30.58
352.52 K | 30.66 | –
357.51 K | 30.27 | –
357.64 K | – | 30.33
360.82 K | 30.43 | –
360.88 K | – | 30.24

CCCCCCn1cc[n+](C)c1.[Br-] [3-hexyl-1-methyl-1H-imidazolium bromide]
surface tension liquid-gas [mN/m]
Details | Ring tensiometer | Wilhelmy Plate
288.65 K | 40.83 | –
293.93 K | 40.58 | –
298.48 K | 40.31 | –
303.39 K | 40.14 | –
303.45 K | – | 39.75
308.08 K | 39.96 | –
308.14 K | – | 39.56
313.4 K | 39.68 | –
313.41 K | – | 39.34
318.16 K | 39.45 | 39.12
323.29 K | – | 38.8
323.34 K | 39.07 | –
328.24 K | – | 38.58
328.26 K | 38.83 | –
333.84 K | 38.51 | –
333.86 K | – | 38.26
338.01 K | 38.31 | –
338.05 K | – | 38.08
343.05 K | 38.09 | –
343.07 K | – | 37.86
348.61 K | 37.8 | –
348.66 K | – | 37.51
352.53 K | 37.43 | –
352.73 K | – | 37.37
358.19 K | 37.28 | –
358.21 K | – | 37.02
360.12 K | 37.19 | –
360.23 K | – | 36.96

Details | mass density [kg/m3]
288.7 K | 1235.51
293.91 K | 1231.69
298.52 K | 1228.13
303.43 K | 1224.72
308.13 K | 1220.87
313.41 K | 1216.98
318.19 K | 1213.32
323.33 K | 1209.5
328.2 K | 1205.7
333.8 K | 1201.57
338.04 K | 1198.15
343.07 K | 1195.21
348.64 K | 1191.41
352.79 K | 1188.62
358.28 K | 1185.22
360.63 K | 1183.34
